Experimental data published in patent US7205301B2, “Microbiocidal N-phenyl-n-[4-(4-pyridyl)-2-pyrimidin-2-yl]-amine derivatives” (Syngenta Crop Protection, Inc., priority 2001, dated 2007).

Columns and labels:
Assay type in all cases: in vivo
Septoria nodorum = assay: Example B-12: effect against Septoria nodorum / wheat (Septoria leaf spot on wheat); settings: Parastagonospora nodorum, 192 h; 0.02% active substance, spray; wheat cv. Arina; inoculated one day after application; assessed 8 days after inoculation; read-out: control of the fungal infection
Protocol: Effect Against Septoria nodorum/Wheat (Septoria Leaf Spot on Wheat) 1 week old wheat plants cv. Arina are treated with a formulated test compound (0.02% active substance) in a spray chamber. One day after application wheat plants are inoculated by spraying a spore suspension (6×10^5 conidia/ml) on the test plants. After an incubation period of 1 day at +22° C. and 95% r.h. plants are kept for 7 days at +22° C. and 60% r.h. in a greenhouse. The disease incidence is assessed 8 days after inoculation.

[1] = tested on: Pyrenophora teres (Helminthosorium); assay: Example B-10: effect against Pyrenophora teres (Helminthosorium) / barley (net blotch on barley); settings: 48 h, 0.02% active substance, spray, barley cv. Regina, inoculated two days after application, assessed after 2 days incubation, read-out: control of the fungal infection
Protocol: Effect Against Pyrenophora teres (Helminthosorium)/Barley (Net Blotch on Barley) 1 week old barley plants cv. Regina are treated with a formulated test compound (0.02% active substance) in a spray chamber. Two days. after application barley plants are inoculated by spraying a spore suspension (3×10^4 conidia/ml) on the test plants. After an incubation period of 2 days at +20° C. and 95% r.h. the disease incidence is assessed.

Botrytis cinerea [2] = assay: Example B-7: Botrytis cinerea / grape (Botrytis on grapes); settings: 72 h, 0.02% active substance, spray, grape seedlings cv. Gutedel, inoculated two days after application, assessed after 3 days incubation, read-out: control of the fungal infection
Protocol: Botrytis cinerea/Grape (Botrytis on Grapes) 5 week old grape seedlings cv. Gutedel are treated with the formulated test compound (0.02% active substance) in a spray chamber. Two days after application grape plants are inoculated by spraying a spore suspension (1.5×10^5 conidia/ml) on the test plants. After an incubation period of 3 days at +21° C. and 95% r. h. in a greenhouse the disease incidence is assessed.

Botrytis cinerea [3] = assay: Example B-8: effect against Botrytis cinerea / tomato (Botrytis on tomatoes); settings: 96 h, 0.02% active substance, spray, tomato cv. Roter Gnom, inoculated two days after application, assessed after 4 days incubation, read-out: control of the fungal infection
Protocol: Effect Against Botrytis cinerea/Tomato (Botrytis on Tomatoes) 4 week old tomato plants cv. Roter Gnom are treated with the formulated test compound 0.02% active substance) in a spray chamber. Two days after application tomato plants are inoculated by spraying a spore suspension (1×10^5 conidia/ml) on the test plants. After an incubation period of 4 days at +20° C. and 95% r. h. in a greenhouse the disease incidence is assessed.

Compound | pest or weed control at 0.02 % strength (Septoria nodorum) [%] | pest or weed control at 0.02 % strength [1] [%] | pest or weed control at 0.02 % strength (Botrytis cinerea [2]) [%] | pest or weed control at 0.02 % strength (Botrytis cinerea [3]) [%]
CC1=NN(c2cc(-c3ccnc(Nc4cccc(Cl)c4)n3)ccn2)C(=O)C1(C)C [1.01/028, 2-{4-[2-(3-Chloro-phenylamino)-pyrimidin-4-yl]-pyridin-2-yl}-4,4,5-trimethyl-2,4-dihydro-pyrazol-3-one] | > 70 | > 70 | > 70 | > 70
CCC1(C)C(=O)N(c2cc(-c3ccnc(Nc4cccc(Cl)c4)n3)ccn2)N=C1C (stereo not shown) [1.03/028, 2-{4-[2-(3-Chloro-phenylamino)-pyrimidin-4-yl]-pyridin-2-yl}-4-ethyl-4,5-dimethyl-2,4-dihydro-pyrazol-3-one] | > 70 | > 70 | > 70 | –
CC1=NN(c2cc(-c3ccnc(Nc4cccc(Cl)c4)n3)ccn2)C(=O)C12CC2 [1.04/028, 5-{4-[2-(3-Chloro-phenylamino)-pyrimidin-4-yl]-pyridin-2-yl}-7-methyl-5,6-diaza-spiro[2.4]hept-6-en-4-one] | – | > 70 | > 70 | > 70
CC1=NN(c2cc(-c3ccnc(Nc4cccc(Cl)c4)n3)ccn2)C(=S)C1(C)C [1.06/028, 2-{4-[2-(3-Chloro-phenylamino)-pyrimidin-4-yl]-pyridin-2-yl}-4,4,5-trimethyl-2,4-dihydro-pyrazole-3-thione] | > 70 | > 70 | > 70 | > 70
CC1(C)C=NN(c2cc(-c3ccnc(Nc4cccc(Cl)c4)n3)ccn2)C1=O [1.07/028, 2-{4-[2-(3-Chloro-phenylamino)-pyrimidin-4-yl]-pyridin-2-yl}-4,4-dimethyl-2,4-dihydro-pyrazol-3-one] | > 70 | > 70 | > 70 | –
COCC1=NN(c2cc(-c3ccnc(Nc4cccc(Cl)c4)n3)ccn2)C(=O)C1(C)C [1.08/028, 2-{4-[2-(3-Chloro-phenylamino)-pyrimidin-4-yl]-pyridin-2-yl}-5-methoxymethyl-4,4-dimethyl-2,4-dihydro-pyrazol-3-one] | – | > 70 | – | –
Cc1c(C)n(C)n(-c2cc(-c3ccnc(Nc4cccc(Cl)c4)n3)ccn2)c1=O [2.02/028, 2-{4-[2-(3-Chloro-phenylamino)-pyrimidin-4-yl]-pyridin-2-yl}-1,4,5-trimethyl-1,2-dihydro-pyrazol-3-one] | > 70 | > 70 | – | > 70
Cc1cc(=O)n(-c2cc(-c3ccnc(Nc4cccc(Cl)c4)n3)ccn2)n1C [2.03/028, 2-{4-[2-(3-Chloro-phenylamino)-pyrimidin-4-yl]-pyridin-2-yl}-1,5-dimethyl-1,2-dihydro-pyrazol-3-one] | > 70 | > 70 | > 70 | –
Cc1c(C=O)c(=O)n(-c2cc(-c3ccnc(Nc4cccc(Cl)c4)n3)ccn2)n1C [2.04/028, 2-{4-[2-(3-Chloro-phenylamino)-pyrimidin-4-yl]-pyridin-2-yl}-1,5-dimethyl-3-oxo-2,3-dihydro-1H-pyrazole-4-carbaldehyde] | > 70 | – | – | –
Cc1cn(C)n(-c2cc(-c3ccnc(Nc4cccc(Cl)c4)c3)ccn2)c1=O [2.05/028, 2-{4-[2-(3-Chloro-phenylamino)-pyridin-4-yl]-pyridin-2-yl}-1,4-dimethyl-1,2-dihydro-pyrazol-3-one] | > 70 | > 70 | > 70 | > 70
CCn1c(C)c(C)c(=O)n1-c1cc(-c2ccnc(Nc3cccc(Cl)c3)c2)ccn1 [2.06/028, 2-{4-[2-(3-Chloro-phenylamino)-pyridin-4-yl]-pyridin-2-yl}-1-ethyl-4,5-dimethyl-1,2-dihydro-pyrazol-3-one] | > 70 | – | – | > 70
COCN(c1cccc(Cl)c1)c1nccc(-c2ccnc(-n3c(=O)cc(C)n3C)c2)n1 [2.08/048, 2-(4-{2-[(3-Chloro-phenyl)-methoxymethyl-amino]-pyrimidin-4-yl}-pyridin-2-yl)-1,5-dimethyl-1,2-dihydro-pyrazol-3-one] | – | > 70 | > 70 | > 70
COCc1c(C)c(=O)n(-c2cc(-c3ccnc(Nc4cccc(Cl)c4)n3)ccn2)n1C [2.09/028, 2-{4-[2-(3-Chloro-phenylamino)-pyrimidin-4-yl]-pyridin-2-yl}-5-methoxymethyl-1,4-dimethyl-1,2-dihydro-pyrazol-3-one] | > 70 | > 70 | > 70 | –
COCc1cc(=O)n(-c2cc(-c3ccnc(Nc4cccc(Cl)c4)n3)ccn2)n1C [2.011/028, 2-{4-[2-(3-Chloro-phenylamino)-pyrimidin-4-yl]-pyridin-2-yl}-5-methoxymethyl-1-methyl-1,2-dihydro-pyrazol-3-one] | – | > 70 | – | –
COc1cc(C)nn1-c1cc(-c2ccnc(Nc3cccc(Cl)c3)n2)ccn1 [3.01/028, (3-Chloro-phenyl)-{4-[2-(5-methoxy-3-methyl-pyrazol-1-yl)-pyridin-4-yl]-pyrimidin-2-yl}-amine] | > 70 | > 70 | – | > 70
COc1c(C)cnn1-c1cc(-c2ccnc(Nc3cccc(Cl)c3)n2)ccn1 [3.012/028, (3-Chloro-phenyl)-{4-[2-(5-methoxy-4-methyl-pyrazol-1-yl)-pyridin-4-yl]-pyrimidin-2-yl}-amine] | > 70 | > 70 | > 70 | –
COCc1nn(-c2cc(-c3ccnc(Nc4cccc(Cl)c4)n3)ccn2)c(OC)c1C [3.013/028, (3-Chloro-phenyl)-{4-[2-(5-methoxy-3-methoxymethyl-4-methyl-pyrazol-1-yl)-pyridin-4-yl]-pyrimidin-2-yl}-amine] | – | > 70 | > 70 | –
COCc1cc(OC)n(-c2cc(-c3ccnc(Nc4cccc(Cl)c4)n3)ccn2)n1 [3.014/028, (3-Chloro-phenyl)-{4-[2-(5-methoxy-3-methoxymethyl-pyrazol-1-yl)-pyridin-4-yl]-pyrimidin-2-yl}-amine] | – | > 70 | > 70 | –
Cc1nn(-c2cc(-c3ccnc(Nc4cccc(Cl)c4)n3)ccn2)c(C)c1C [3.017/028, (3-Chloro-phenyl)-{4-[2-(3,4,5-trimethyl-pyrazol-1-yl)-pyridin-4-yl]-pyrimidin-2-yl}-amine] | – | > 70 | – | –
